# Test results from patent US7153930B1, “Peptide transport” (priority 1999, dated 2006).
# Non-standard residues stand in square brackets, D forms with d. Residues, ends and D or L forms follow the SMILES beside them. *: point of attachment. Cholyl = C[C@H](CCC(=O)*)[C@H]1CC[C@H]2[C@@H]3[C@H](O)C[C@@H]4C[C@H](O)CC[C@]4(C)[C@H]3C[C@H](O)[C@]12C; pGlu = O=C1CC[C@@H](C(=O)O)N1
# Key:
# gastric acid secretion [1] = settings: rat, in vivo
# Method: (§1) Experiments were carried out on male Wistar rats of 250–350 g, which had been starved overnight, and which were anaesthetized with an I.P. injection of Sagatal (pentobarbitone sodium, obtainable from Rhône Mérieux, Harlow Essex, UK) of dosage appropriate to the body weight. The criterion for anaesthesia was abolition of the hind limb flexor withdrawal reflex. The following surgical procedures were then carried out: tracheostomy to allow artificial ventilation if required, cannulation of the carotid artery to monitor blood pressure, cannulation of the external jugular vein to allow for the slow bolus infusion of drugs, intubation of the stomach at the pyloro-duodenal junction after ligation of the oesophagus to measure gastric acid secretion, cannulation of the terminal ileum and/or of the proximal jejunum distal to the ligament of Treitz for infusion of peptide hormones.
# (§2) Gastric acid secretion was measured by the following method. 1.0 ml of glycine/mannitol buffer (1 part glycine (0.3M) and 4 parts D-mannitol (0.3M) adjusted to pH 6.5) was instilled into the stomach and left for 15 min when withdrawal was made. The HCl secreted was determined by back titration with 10 mM NaOH to pH 6.5.
# (§3) The data are expressed as the mean±S.D. μmol HCl secreted by the stomach over the stated time period in response to the experimental procedure.
# gastric acid secretion [2] = experiment: Gastric acid secretion in anaesthetized rats after I.V., intra-ileal or jejunal administration of gastrin peptides (back titration of HCl); settings: for stimulation of the peak gastric acid secretion: 5 rats; for effect on gastric acid secretion: unconjugated gastrin without prior injection of the respective conjugate; for increase in gastric acid secretion with respect to baseline: P=0.001; for absorption across the ileal wall into the circulation: cholate conjugated form introduced into the ileum
# Method: as §1, §2, §3
compound,measurement,setting,value
"H-EEEAYGWMDF-NH2 [G10, H-Glu-Glu-Glu-Ala-Tyr-GlyTrp-Met-Asp-Phe-amide]",absorption of unconjugated gastrin,gastric acid secretion [1],absorption of the unconjugated gastrin occurred
same,stimulation of the peak gastric acid secretion,"gastric acid secretion [2]; I.V. 36 μg kg^−1, initial injection, P=0.036",1.28 ± 0.93 µmol
same,stimulation of the peak gastric acid secretion,"gastric acid secretion [2]; I.V. 36 μg kg^−1, second injection at the end of the experiment, P=0.048",1.45 ± 1.15 µmol
same,change in gastric acid secretion,"gastric acid secretion [2]; infusion into the ileum, 6600 μg kg^−1 in 1.0 ml, not significant (P=0.23)",−1.22±1.93 μmol 180 min^−1
same,effect on gastric acid secretion,gastric acid secretion [2],without effect on gastric acid secretion
"CSCC[C@H](NC(=O)[C@@H](N)Cc1c[nH]c2ccccc12)C(=O)N[C@@H](CC(=O)O)C(=O)N[C@@H](Cc1ccccc1)C(N)=O [G4, Trp-Met-Asp-Phe amide]",absorption from the upper jejunum,gastric acid secretion [1],lack of absorption
same,absorption of unconjugated gastrin,gastric acid secretion [1],absorption of the unconjugated gastrin occurred
same,increase in gastric acid secretion with respect to baseline,gastric acid secretion [2]; first intravenous injection (start of experiment),0.42±0.10 μmol 15 min^1
same,fall in the mean gastric acid level,"gastric acid secretion [2]; ileal infusion, 2500 μg kg^−1 in 1.0 ml isotonic saline, 6 experiments, P=0.043",0.23 ± 0.21 µmol/h
same,increase in gastric acid secretion with respect to baseline,gastric acid secretion [2]; second intravenous injection (end of experiment),0.50±0.14 μmol 15 min^1
same,effect on gastric acid secretion,gastric acid secretion [2],without effect on gastric acid secretion
"CSCC[C@H](NC(=O)[C@H](Cc1c[nH]c2ccccc12)NC(=O)CC[C@@H](C)[C@H]1CC[C@H]2[C@@H]3[C@H](O)C[C@@H]4C[C@H](O)CC[C@]4(C)[C@H]3C[C@H](O)[C@]12C)C(=O)N[C@@H](CC(=O)O)C(=O)N[C@@H](Cc1ccccc1)C(N)=O [G4-CA, cholate-Trp-Met-Asp-Phe amide]",absorption across the ileal wall into the circulation,gastric acid secretion [2],absorption of the conjugated gastrin across the ileal wall into the circulation occurred
CC[C@H](C)[C@H](NC(=O)[C@H](Cc1ccccc1)NC(=O)[C@H](Cc1c[nH]cn1)NC(=O)[C@H](CCC(N)=O)NC(=O)[C@@H]1CCCN1C(=O)CNC(=O)[C@H](CCC(N)=O)NC(=O)[C@@H]1CCCN1C(=O)CNC(=O)[C@H](CC(C)C)NC(=O)[C@H](CCC(=O)O)NC(=O)CC[C@@H](C)[C@H]1CC[C@H]2[C@@H]3[C@H](O)C[C@@H]4C[C@H](O)CC[C@]4(C)[C@H]3C[C@H](O)[C@]12C)C(=O)N[C@@H](C)C(=O)N[C@@H](CC(=O)O)C(=O)N[C@@H](CC(C)C)C(=O)N[C@@H](CO)C(=O)N[C@@H](CCCCN)C(=O)N[C@@H](CCCCN)C(=O)N[C@@H](CCC(N)=O)C(=O)N[C@@H](CCCNC(=N)N)C(=O)N1CCC[C@H]1C(=O)N1CCC[C@H]1C(=O)N[C@@H](CCSC)C(=O)N[C@@H](CCC(=O)O)C(=O)N[C@@H](CCC(=O)O)C(=O)N[C@@H](CCC(=O)O)C(=O)N[C@@H](CCC(=O)O)C(=O)N[C@@H](CCC(=O)O)C(=O)N[C@@H](C)C(=O)N[C@@H](Cc1ccc(O)cc1)C(=O)NCC(=O)N[C@@H](Cc1c[nH]c2ccccc12)C(=O)N[C@@H](CCSC)C(=O)N[C@@H](CC(=O)O)C(=O)N[C@@H](Cc1ccccc1)C(N)=O [G34-CA] (Cholyl-ELGPQGPQHFIADLSKKQRPPMEEEEEAYGWMDF-NH2),absorption across the ileal wall into the circulation,gastric acid secretion [2],absorption of the conjugated gastrin across the ileal wall into the circulation occurred
pGlu-Leu-Gly-Pro-Gln-Gly-Pro-Gln-His-Phe-Ile-Ala-Asp-Leu-Ser-Lys-Lys-Gln-Arg-Pro-Pro-Met-Glu-Glu-Glu-Glu-Glu-Ala-Tyr-GlyTrp-Met-Asp-Phe-NH2 ([pGlu]LGPQGPQHFIADLSKKQRPPMEEEEEAYGWMDF-NH2; ends and bridges not checked) [G34],absorption of unconjugated gastrin,gastric acid secretion [1],absorption of the unconjugated gastrin occurred
same,stimulation of the peak gastric acid secretion,"gastric acid secretion [2]; I.V. 10 ng kg^−1, second injection at the end of the experiment, P=0.0005",0.23 ± 0.051 µmol
same,stimulation of the peak gastric acid secretion,"gastric acid secretion [2]; I.V. near threshold dose 10 ng kg^−1, initial injection, P=0.0008",0.14 ± 0.034 µmol
same,change in mean gastric acid secretion,"gastric acid secretion [2]; infusion into the ileum, 10.5 mg kg^−1 in 1.0 ml, not significant (P=0.16)",0.202±0.262 μmol 180 min^−1
same,mean increase in gastric acid secretion,"gastric acid secretion [2]; intraileal infusion of G34 subsequent to intraileal infusion of G34-CA, 4 rats, P=0.004",5.68±1.38 μmol 180 min^−1
same,effect on gastric acid secretion,gastric acid secretion [2],without effect on gastric acid secretion
"CSCC[C@H](NC(=O)[C@H](Cc1c[nH]c2ccccc12)NC(=O)CNC(=O)[C@H](Cc1ccc(O)cc1)NC(=O)[C@H](C)NC(=O)[C@H](CCC(=O)O)NC(=O)[C@H](CCC(=O)O)NC(=O)[C@H](CCC(=O)O)NC(=O)CC[C@@H](C)[C@H]1CC[C@H]2[C@@H]3[C@H](O)C[C@@H]4C[C@H](O)CC[C@]4(C)[C@H]3C[C@H](O)[C@]12C)C(=O)N[C@@H](CC(=O)O)C(=O)N[C@@H](Cc1ccccc1)C(N)=O [G10-CA, cholate-Glu-Glu-Glu-Ala-Tyr-Gly-Trp-Met-Asp-Phe-amide] (Cholyl-EEEAYGWMDF-NH2)",absorption across the ileal wall into the circulation,gastric acid secretion [2],absorption of the conjugated gastrin across the ileal wall into the circulation occurred
